Experimental data taken from EP0363275A1, “Low molecular weight vectors specific for sugar receptors, their conjugates and processes for their preparation” (IRE-CELLTARG S.A., priority 1988, dated 1990).
Several values for one entry are separate records, joined by “and”; a condition that tells them apart may be missing. Equal entries are not always repeated. Entries after “also recorded” stand apart in the source; their conditions may differ.

What was measured:
malaria murine = experiment: Therapeutic activity of amino-acid derivatives of primaquine in the murine malaria model; format: in vivo
[1] = target: T1, récepteur à asialoglycoprotéine des hépatocytes (Rattus norvegicus, UniProt P02706+P08290); experiment: Competition with ¹²⁵I HSA gal for binding to cultured hepatocytes at 4°C; conditions: for affinité pour le récepteur: cultured rat hepatocytes
T1 construct: le récepteur à galactoses présent à la membrane sinusoïdale des hépatocytes; endogenous in cells; host or cells: primary rat hepatocytes, isolated and cultured 16 h
T1 sequence (P02706 1-284): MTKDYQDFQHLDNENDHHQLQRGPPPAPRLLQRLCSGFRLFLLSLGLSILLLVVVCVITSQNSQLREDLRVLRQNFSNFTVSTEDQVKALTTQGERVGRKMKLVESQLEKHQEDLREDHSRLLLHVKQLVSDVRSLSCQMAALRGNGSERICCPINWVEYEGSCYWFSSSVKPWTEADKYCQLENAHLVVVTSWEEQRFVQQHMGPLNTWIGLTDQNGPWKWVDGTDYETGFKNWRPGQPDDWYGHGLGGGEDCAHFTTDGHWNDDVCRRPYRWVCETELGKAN
T1 sequence (P08290 1-301): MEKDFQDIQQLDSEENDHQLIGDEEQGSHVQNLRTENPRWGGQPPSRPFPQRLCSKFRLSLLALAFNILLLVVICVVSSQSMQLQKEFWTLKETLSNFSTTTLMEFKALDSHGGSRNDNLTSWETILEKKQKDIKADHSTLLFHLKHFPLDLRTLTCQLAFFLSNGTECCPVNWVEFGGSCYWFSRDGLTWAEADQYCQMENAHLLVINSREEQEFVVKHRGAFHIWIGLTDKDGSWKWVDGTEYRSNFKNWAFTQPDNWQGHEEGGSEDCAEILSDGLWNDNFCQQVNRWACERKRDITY
Experimental: D'autres caractéristiques et avantages de la présente invention apparaîtront à la lumière des exemples qui vont suivre. • - La figure 1 : Expériences de compétition entre l'HSA gal marqué à l'iode-125 et différentes concentrations molaires en HSA gal non radioactives (●) ou en composés glycosylés (mono O bi □ triantenne ▲ ) non radioactifs. Les cellules mises en culture depuis 16 h. sont incubées à 4°C pendant 4 h. en présence de 1 ml de milieu contenant 50 ng d'¹²⁵I HSA gal et les différentes concentrations en produits non radioactifs. Après l'incubation, les cellules sont lavées et la radioactivité qui leur est associée, mesurée. Les résultats sont exprimés en pourcentage d'¹²⁵I HSA gal qui reste associé aux cellules en fonction du logarithme de la concentration molaire en compétiteur. • - La figure 2 : Expériences de compétiton entre l'HSA gal marqué à l'iode-125 et différentes concentrations molaires en galactoses d'HSA gal ou de composés glycosylés (mono O bi □ et triantenne ▲ )non radioactifs. Les cellules sont traitées comme décrit dans la figure 1 et les résultats sont exprimés en pourcentage d'[…] HSA gal qui reste associé aux cellules en fonction du logarithme de la concentration molaire en galactose du compétiteur. • - La figure 3 : Distribution tissulaire de la triantenne marquée au tritium. Différentes concentrations en triantenne ³H sont administrées par voie intraveineuse à des souris OF₁. Trois minutes après l'injection, les animaux sont sacrifiés. Le sang et les différentes organes sont prélevés, homogénéisés et la radioactivité qui leur est associée, mesurée. Les résultats sont exprimés en pourcentage de la dose totale injectée et représentent la moyenne + déviation standard de 3 expériences. • - La figure 4 : Distribution tissulaire de la triantenne marquée au tritium. Des souris ont reçu par voie i.v. différentes concentrations de triantenne ³H. Les animaux sont sacrifiés 3 min. après l'injection. Le sang et les différents organes sont prélevés, homogénéisés et la radioactivité qui leur est associée, mesurée. Les résultats sont présentés en pourcentage de la dose injectée par gr. de tissu et représentent la moyenne + déviation standard de 3 expériences. • - La figure 5 : Capture hépatique de la triantenne marquée au tritium. Différentes concentrations en triantenne ³H sont injectées par voie i.v. à des souris OF₁. La radioactivité associée au foie est mesurée 3 min. après l'injection. Les valeurs sont exprimées en ng de galactose associés au foie en fonction des ng de galactoses injectés. • - La figure 6 : Distribution tissulaire de la triantenne marquée au tritium (a.) ou au technetium (b.). Une concentration de 100 µg en galactoses de triantenne radioactive est injectée par voie i.v. à des souris OF₁. Les animaux sont sacrifiés 3 min. après l'injection. Le sang et les différents organes sont prélevés, homogénéisés et la radioactivité qui leur est associée, mesurée. Les résultats sont exprimés en pourcentage de la dose totale administrée (case supérieure) ou en pourcentage de la dose totale injectée par gr. de tissu (case inférieure). Ils représentent la moyenne + déviation standard de 3 expériences.
L'étude in vitro des vecteurs hépatotropes de faible poids moléculaire a été effectuée sur des hépatocytes de rats isolés et mis en culture.
L'affinité relative a été déterminée par une expérience de compétition entre le vecteur et une néoglycoprotéine connue pour sa haute affinité pour les récepteurs à galactoses, soit l'albumine humaine
Afin de déterminer si les hépathocytes fixent spécifiquement les différents dérivés glycosylés (monoantenne = 3 galactoses terminaux; biantenne = 6 galactoses terminaux; triantenne = 9 galactoses terminaux), des expériences de compétition pour le récepteur à asialoglycoprotéines entre l'HSA gal et les différents composés ont été réalisées. […]

[2] = Blood disappearance and tissue distribution after i.v. administration (Example 7); format: in vivo, souris
Description: In vivo, on a étudié la disparition sanguine ainsi que la distribution tissulaire de la triantenne suite à son administration intra-veineuse à des souris.

[3] = parameters: species or system souris OF₁; conditions: in vivo, iv
Experimental: D'autres caractéristiques et avantages de la présente invention apparaîtront à la lumière des exemples qui vont suivre. • - La figure 1 : Expériences de compétition entre l'HSA gal marqué à l'iode-125 et différentes concentrations molaires en HSA gal non radioactives (●) ou en composés glycosylés (mono O bi □ triantenne ▲ ) non radioactifs. Les cellules mises en culture depuis 16 h. sont incubées à 4°C pendant 4 h. en présence de 1 ml de milieu contenant 50 ng d'¹²⁵I HSA gal et les différentes concentrations en produits non radioactifs. Après l'incubation, les cellules sont lavées et la radioactivité qui leur est associée, mesurée. Les résultats sont exprimés en pourcentage d'¹²⁵I HSA gal qui reste associé aux cellules en fonction du logarithme de la concentration molaire en compétiteur. • - La figure 2 : Expériences de compétiton entre l'HSA gal marqué à l'iode-125 et différentes concentrations molaires en galactoses d'HSA gal ou de composés glycosylés (mono O bi □ et triantenne ▲ )non radioactifs. Les cellules sont traitées comme décrit dans la figure 1 et les résultats sont exprimés en pourcentage d'[…] HSA gal qui reste associé aux cellules en fonction du logarithme de la concentration molaire en galactose du compétiteur. • - La figure 3 : Distribution tissulaire de la triantenne marquée au tritium. […]

hépatocytes = experiment: Uptake (internalisation) by hepatocytes at 37°C; format: cell-based, rat; conditions: short periods (120 min)
Experimental: A 37°C, les récepteurs intériorisent efficacement la triantenne. Par comparaison avec la capture de la macromolécule, ASH gal, les hépatocytes incubés pendant de courtes périodes (120 min), intériorisent jusqu'à 4 fois plus de molécules de triantenne.
Ce fait pourrait s'expliquer par la formation préférentielle de complexes ligand-récepteur à vitesse de dissociation lente, dans le cas de la triantenne.

récepteur d'Ashwell = target: T2, récepteur d'Ashwell (Rattus norvegicus, UniProt P02706+P08290); experiment: Binding sites and Kd of triantenne on hepatocytes; conditions: number of sites
T2 construct: endogenous in cells
T2 sequence (P02706 1-284): T1 sequence (P02706 1-284)
T2 sequence (P08290 1-301): T1 sequence (P08290 1-301)

[4] = among amino-acid derivatives of primaquine
[5] = result in words, hepatocytes, 4°C

COc1cc(NC(C)CCCNC(=O)[C@@H](N)CCC(=O)O)c2ncccc2c1 (stereo partly drawn) [L-glutamyl-Pq]
index thérapeutique (malaria murine; [4]): meilleur index thérapeutique

COc1cc(NC(C)CCCNC(=O)C(N)CCCCN)c2ncccc2c1 [L-lysyl-Pq]
activité (malaria murine; [4]): meilleure activité
toxicité (malaria murine; compared with primaquine): toxicité plus élevée que celle de la primaquine

Cbz-Asp bis(-6-amino Hex-Tris tri Gal) [Biantenne]
affinité pour le récepteur ([1]; result in words): affinité importante
compétition avec l'HSA gal iodiné pour le récepteur à asialoglycoprotéine [1, 5]: induit une diminution de la radioactivité associée aux cellules; also recorded: entre effectivement en compétition

Cbz-Asp-(6-amino Hex-Tris tri Gal) [Monoantenne]
B=Ic50 (molaire en gal.) ([1]; molar concentration in galactoses of the competitor inhibiting 50 % of ¹²⁵I HSA gal binding, hepatocytes, 4°C, 4 h): non déterminable
A=Ic 50 (molaire) ([1]; molar concentration of competitor inhibiting 50 % of ¹²⁵I HSA gal binding, hepatocytes, 4°C, 4 h): non déterminable
affinité pour le récepteur ([1]; result in words): ne présentent d'affinité significative
compétition avec l'HSA gal iodiné pour le récepteur à asialoglycoprotéine [1, 5]: n'entre pas en compétition; also recorded: se fixe aspécifiquement sur les cellules

Cbz-Asp-Asp-tri(-6-amino Hex-Tris tri Gal) [Triantenne]
quantité accumulée par les hépatocytes ([2]; 5 min after injection): > 40 % de la quantité administrée
quantité interagissant avec les autres organes ([2]; 5 min after injection): < 2%
rapport des concentrations spécifiques du foie et des reins ([2]; after 10 min): 10
molécules captées par le foie par rapport à l'ASH gal ([2]; comparable number of molecules, after 5 min): ~2 fois
disparition sanguine ([2]; result in words): éliminée très rapidement de la circulation sanguine
rapport des concentrations spécifiques du foie et des reins ([2]; start value): 1.5
matériel radioactif associé au sang ou au plasma [3]: ≤ 10 % de la dose initiale administrée
radioactivité associée aux autres organes (rate, coeur, poumons, muscles, estomac, duodenum, colon, rectum) [3]: < 5%
molécules intériorisées par rapport à l'ASH gal (hépatocytes): ≤ 4 fois
sites de haute affinité (récepteur d'Ashwell): 56370 sites
sites de plus faible affinité (récepteur d'Ashwell): 490500 sites
affinité par rapport à celle de la biantenne ([1]; ratio triantenne / biantenne): ~100 fois and 60 fois
affinité exprimée en concentration molaire en galactoses, par rapport à l'HSA gal ([1]; result in words): du même ordre de grandeur
affinité pour le récepteur ([1]; result in words): la plus haute affinité pour le récepteur; also recorded: affinité importante
compétition avec l'HSA gal iodiné pour le récepteur à asialoglycoprotéine [1, 5]: induit une diminution de la radioactivité associée aux cellules
